Experiments:
Leishmania donovani = assay: Leishmania intramacrophage assay; type: functional, organism-based; conditions: for IC50: Leishmania donovani
[1] = microbe, parasite or virus in culture; conditions: Mycobacterium tuberculosis, 96 h, read-out: pIC50 (converted)
[2] = microbe, parasite or virus in culture; conditions: Mycobacterium tuberculosis, 72 h, read-out: pIC50 (converted)

| Compound | IC50 (Leishmania donovani) [µM] | other results |
| --- | --- | --- |
| c1nc(CCNc2nc(C3CC3)nc3c2CCNCC3)c[nH]1 | > 50.1 | – |
| Cc1cc(C(F)(F)F)nc(N2CCN(Cc3nccn3C)CC2)n1 | > 50.1 | – |
| Cc1nccn1CC1CCCN(C(=O)Cc2ccsc2)C1 (configuration not stated) | > 50.1 | – |
| Cc1sc2nc(CCN)nc(N3CCC(N4CCCC4)CC3)c2c1C | > 50.1 | – |
| CCc1nnc(CN2CCN(c3cccc(OC)c3)C(=O)C2)o1 | > 50.1 | – |
| COc1cc(OC)cc(-c2cccc3c2OC(CN)C3)c1 (configuration not stated) | 18.3 | pIC50 (Leishmania donovani): 4.734; IC50 [1]: 20 µM; IC50 [2]: 1.33 µM |
| COCCNc1nc2c(c(NCCc3cccs3)n1)CCNCC2 | 24.2 | – |
| COCc1noc(CNc2nc(C3CCCC3)nc3c2CCNCC3)n1 | > 50.1 | – |
| O=c1[nH]cccc1-c1nccc(C2(c3ccccc3Cl)CCNCC2)n1 | > 50.1 | – |
| COCCN(Cc1cnn(C)c1)c1nc(C)nc2sccc12 | > 50.1 | – |
| O=C1NCCCC12CCN(c1nc3c(c(C(F)(F)F)n1)CCCC3)C2 (configuration not stated) | > 50.1 | – |
| Cc1sc2nc(CCN)nc(N3CC(N4CCCCC4)C3)c2c1C | 23.7 | – |
| CCCN(CCOC)c1nc(C)nc2sccc12 | > 50.1 | – |
| COc1ccc(-c2cccc3c2OC(CN)C3)cc1F (configuration not stated) | 22.2 | pIC50 (Leishmania donovani): 4.618; IC50 [1]: 34.7 µM; IC50 [2]: > 50.1 µM |
| CC(=O)NCc1nnc2n1CCN(c1nc(C)nc3sccc13)CC2 | > 50.1 | – |
| Cc1nc(NCc2noc(C3CCCO3)n2)c2ccsc2n1 (configuration not stated) | > 50.1 | – |
| CC(C)n1ccnc1C1CCCN(c2ccccn2)C1 (configuration not stated) | > 50.1 | – |
| CCc1cc(N2CCCNCC2)n2nc(C)c(C)c2n1 | > 50.1 | – |
| NCC1CN(c2nc(-c3ccccc3)nc3c2CCNCC3)CCO1 (configuration not stated) | > 50.1 | – |
| Clc1ccccc1C1(c2ccnc(-c3ncccn3)n2)CCNCC1 | > 50.1 | – |

| Compound | IC50 (Leishmania donovani) [µM] | other results |
| --- | --- | --- |
| FC(F)(F)c1nc(NC2CCCC2)c2ccccc2n1 | > 50.1 | – |
| Cc1cnc(N2CCCC3(CCCN(C)C3)C2)nc1 (configuration not stated) | > 50.1 | – |
| Cn1ccc(C(=O)N2CCCC(Cc3cccc4ncccc34)C2)n1 (configuration not stated) | > 50.1 | – |
| CN1CCCC(Cc2cncc(Br)c2)CC1 (configuration not stated) | > 50.1 | – |
| CCC1CCCN(Cc2nc(N)c3ccccc3n2)C1 (configuration not stated) | > 50.1 | – |
| c1cnc(-c2nc(CN3CCCC(N4CCCC4)C3)cs2)nc1 (configuration not stated) | > 50.1 | – |
| c1cnc(-c2nc(CN3CCCN(Cc4cccs4)CC3)cs2)nc1 | > 50.1 | – |
| CC(=O)NC1CCCN(Cc2csc(-c3ncccn3)n2)C1 (configuration not stated) | > 50.1 | – |
| NC(=O)C1CCN(Cc2csc(-c3ncccn3)n2)CC1 | > 50.1 | – |
| CC(C(=O)NCc1ccnc(N(C)C)c1)n1cccn1 (configuration not stated) | > 50.1 | – |
| CC(NCc1ccsc1)c1ccc2c(c1)NC(=O)CO2 (configuration not stated) | > 50.1 | – |
| C=C(C)CN1CCC(C(=O)c2cc(F)ccc2F)CC1 | > 50.1 | – |
| CC(Cn1cccn1)NC(=O)NCCc1cccnc1 (configuration not stated) | > 50.1 | – |
| O=C(NCc1ccccn1)C1=NN(c2ccccc2)C(=O)CN1 | > 50.1 | – |
| COc1cccc(CNCC2CN(C)CCO2)c1 (configuration not stated) | > 50.1 | – |
| COc1ccc(CNc2cnn(C)c(=O)c2Cl)cc1 | > 50.1 | – |
| Cc1cc(CN2CCCC(Cn3cncn3)C2)on1 (configuration not stated) | > 50.1 | – |
| CC(C)OCCN1CCC(N2CCN(C)C2=O)CC1 | > 50.1 | – |
| CC(NC(=O)NCCCn1ccnc1)c1ccc2c(c1)OCCCO2 (configuration not stated) | > 50.1 | – |
| Cn1nccc1C1CCN(Cc2csc(-c3ncccn3)n2)CC1 | > 50.1 | – |

| Compound | IC50 (Leishmania donovani) [µM] | other results |
| --- | --- | --- |
| c1cnc(-c2nc(CN3CCC(c4ccn[nH]4)CC3)cs2)nc1 | > 50.1 | – |
| CCCC1CCCN(Cc2csc(-c3cnn(C)c3)n2)CC1 (configuration not stated) | > 50.1 | – |
| CCCc1nc(CN2CCCC2Cn2cncn2)cs1 (configuration not stated) | > 50.1 | – |
| O=C(CCc1cscn1)N1CCCC(n2ccnc2)C1 (configuration not stated) | > 50.1 | – |
| Cc1ccc(N2CCCC(NCc3cscn3)C2)nn1 (configuration not stated) | > 50.1 | – |
| c1cnc(-c2nc(CN3CCCC(Cn4cncn4)C3)cs2)nc1 (configuration not stated) | > 50.1 | – |
| Cc1nccn1CCCn1cncc1-c1ccc2c(c1)CCCN2C | > 50.1 | – |
| COc1ccc(OCc2sc(C3(O)CCCNCC3)nc2C)cc1 (configuration not stated) | > 50.1 | – |
| COc1ccc(OCCc2sc(C3(O)CCCNCC3)nc2C)cc1 (configuration not stated) | > 50.1 | – |
| COc1ccc(C(NCc2ccc(C#N)cc2)C2CC2)cc1 (configuration not stated) | > 50.1 | – |
| CC(Cn1ccnc1)NCc1cc(Br)c2c(c1)OCO2 (configuration not stated) | > 50.1 | – |
| CCOc1ccc(CNCC(O)c2ccccc2)cc1Cl (configuration not stated) | 29.6 | – |
| O=C(c1c[nH]cn1)N1CCC(F)(F)C2(CCN(c3cccc(F)c3)C2)C1 (configuration not stated) | > 50.1 | IC50 [1]: > 50.1 µM; IC50 [2]: > 50.1 µM |
| CC(C)c1nc(-c2cc(C(=O)NCCN(C)C)c3ccccn23)cs1.O=C(O)C(F)(F)F | 18.9 | pIC50 (Leishmania donovani): 4.846; IC50 [1]: > 50.1 µM; IC50 [2]: > 50.1 µM |
| CN(Cc1ccccc1)C1COC2(CCN(Cc3nccs3)CC2)C1 (configuration not stated) | > 50.1 | – |
| CCN1CCC2(C=C(C(=O)N(C)C)c3ccccc32)CC1 | > 50.1 | – |
| Cn1cc(CN2CCC(F)(F)C3(CCN(c4cnccn4)C3)C2)cn1 (configuration not stated) | > 50.1 | IC50 [1]: > 50.1 µM; IC50 [2]: > 50.1 µM |
| Cc1ccc(CN2CCC(F)(F)C3(CCN(c4cnccn4)C3)C2)o1 (configuration not stated) | > 50.1 | – |
| CC1CCCN(Cc2ccnc(-c3cccnc3)n2)C1 (configuration not stated) | > 50.1 | – |

Source: ChEMBL document CHEMBL3988442, “University of Dundee, Small-Polar-MMV Screening Library” (2021)
